In PubChem BioAssay AID1259333 (Broad Institute, 2017) one finds activity change, negative = cytotoxicity data, which are given here for 27 molecules.

Active and inactive are the calls of the source. The rule behind the calls is not given here; tested in parental BL2 cells.

A short description of one experiment: cell cytotoxicity, dose response, cytotoxicity control, CellTiter-Glo (AID 1259333).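 Note: 0% = vehicle neutral controls and -100% = reference inhibitor positive controls.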 The note with it: cytotoxicity, CellTiter-Glo ATP luminescence; at 3.5 µM (top of the series).
Consider `O=C1C=CC(=O)c2c(O)c(N3CCN(CCOCCO)CC3)c(Br)c(O)c21`, for which the activity change, negative = cytotoxicity was 104% (inactive).

Staying with this experiment, now noted: cytotoxicity, CellTiter-Glo ATP luminescence; at 10 µM (top of the series).
Take `COc1cccc(/C=N/Nc2ccc(C(=O)O)cc2)c1O`: the activity change, negative = cytotoxicity is 5.24% (inactive).
Still for that read-out and setting: in the case of `O=C(C1CCOCC1)N1CC(=O)N2[C@H](C1)[C@H](c1ccc(C#CCc3ccccc3)cc1)[C@@H]2CO` it was 95.5% (inactive).
`N#Cc1cccc(-c2ccc([C@@H]3[C@@H]4CN(S(=O)(=O)c5ccc(-c6ccccc6)cc5)C[C@H]3N4)cc2)c1`: the activity change, negative = cytotoxicity is 25.4% (inactive).
The same measure, in the same setting: to `Cc1ccc(S(=O)(=O)N[C@@H](Cc2ccccc2)C(=O)CCl)cc1` belongs 82.4% (inactive); to `CCCNC(=O)c1cc2c(c(-c3cccc(-c4cc5ccccc5o4)c3)n1)[C@H](CCO)N(C(=O)NC(C)C)C2`, 109% (inactive); to `O=C1CCCCC1Sc1nnc(-c2ccc3c(c2)OCO3)o1` (configuration not stated), 25.1% (inactive).
The same measure, in the same setting: in the case of `CC1CCCC=CC2CC(OC(=O)CN(C)C)CC2C(O)C=CC(=O)O1` (configuration not stated) it was 53.7% (inactive); in that of `CC1CNCCN1S(=O)(=O)c1cccc2cnccc12` (configuration not stated), -37.9% (inactive).
The same measure, in the same setting: to `c1ccc(-c2ccc(-c3ccccn3)nn2)nc1` belongs -10.2% (inactive).
With `O=C(/C=C/c1cccs1)c1ccc(N2CCOCC2)cc1`, the activity change, negative = cytotoxicity is 23.6% (inactive).
Same read-out and setting: in the case of `CC1CC(C)CC(C)C(O)C(C#N)=CC=CCC(C2CCCC2C(=O)O)OC(=O)CC(O)C(C)C1` (configuration not stated) it was -8.2% (inactive).
As to `O=C(CNC(=O)c1ccco1)Nc1ccc2c(c1)OCCO2`, the activity change, negative = cytotoxicity is -6.17% (inactive).
The same measure, in the same setting: in the case of `O=C(C[C@@H]1CC[C@H]2[C@@H](COC[C@@H](O)CN2Cc2cc(F)ccc2F)O1)NCc1ccc(Oc2ccccc2)cc1` it was 14.2% (inactive); in that of `O=C(C[C@@H]1C[C@H]2c3cc(NC(=O)Nc4ccc(C(F)(F)F)cc4)ccc3O[C@H]2[C@H](CO)O1)NCc1cc(F)ccc1F`, 31.2% (inactive); in that of `CSC1SCC2C(=O)N(C)C(C(C)C)C(=O)OCC(NC(=O)c3cnc4ccccc4n3)C(=O)NC(C)C(=O)N(C)C1C(=O)N(C)C(C(C)C)C(=O)OCC(NC(=O)c1cnc3ccccc3n1)C(=O)NC(C)C(=O)N2C` (configuration not stated), 62.7% (inactive).
The same measure, in the same setting: in the case of `Cc1ccc(C(CC(=O)NCc2ccco2)c2ccc(OC(C)C)cc2)cc1` (configuration not stated) it was -3.48% (inactive); in that of `CCc1cc2c(COC(=O)c3cc(S(=O)(=O)N4CCOCC4)ccc3F)cc(=O)oc2cc1O`, 64% (inactive).
`N#C[C@@H]1[C@H](c2ccc(C#Cc3ccc(F)cc3)cc2)[C@@H](CO)N1C(=O)C1CCC1`: the activity change, negative = cytotoxicity is 5.33% (inactive).
Same read-out and setting: in the case of `O=C(C[C@H]1CC[C@@H]2[C@H](COC[C@H](O)CN2Cc2cc(F)ccc2F)O1)NCc1ccc(Oc2ccccc2)cc1` it was 17% (inactive); in that of `O=C(NCc1ccccn1)C1CCCN(S(=O)(=O)c2ccccc2)C1` (configuration not stated), 44.9% (inactive).
Still for that read-out and setting: in the case of `CC(C)C1CC(N(C)C)=CC(=S)N1` (configuration not stated) it was 24.5% (inactive).
The same measure, in the same setting: in the case of `Cc1csc(NC(=O)c2ccc(N3CCCC3=O)cc2)n1` it was 23.5% (inactive); in that of `O=S(=O)(CCSc1ccccn1)c1nc2ccccc2s1`, 55.1% (inactive); in that of `c1ccc2c(c1)OCC(C1=NCCN1)O2` (configuration not stated), 56.8% (inactive).
As for `C[C@@H]1CN([C@@H](C)CO)C(=O)c2c(c3ccccc3n2C)-c2ccccc2CO[C@H]1CN(C)Cc1cccc(C(=O)Nc2ccccc2N)c1`, the activity change, negative = cytotoxicity is 26.3% (inactive).
In the case of `Cc1ccc2nc(-c3cc(-c4ccccc4)no3)cn2c1`, the activity change, negative = cytotoxicity was 51.5% (inactive).
